From patent publication US9796711B2, “Substituted pyrazolo[3,4-b]pyridin-6-carboxylic acids and method of use” (AbbVie S.àr.l., priority 2015, dated 2017) come the findings set out here.

Structures are written as SMILES.

The target in experiment [1] is T1, ΔF508-CFTR (Homo sapiens, UniProt P13569, DEL508-508).
T1 construct: host or cells: CFBE41o-, doxycycline-inducible
The experiment in a line: CFTR cell surface levels using HRP-tagged ΔF508-CFTR expressing CFBE cells, in the presence of a co-corrector. It counts as cell-based. Conditions: HRP-tagged ΔF508-CFTR expressing CFBE cells, in the presence of 3 μM co-corrector; for EC50: read-out: EC50. The method, boiled down:
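Cells were seeded with 0.5 μg/mL doxycycline and held 68 h at 37 °C. Test compounds plus 3 μM co-corrector (final 0.1% DMSO) were then added for 20 h at 33 °C. Washed cells received HRP substrate, and luminescence was normalized between DMSO and 3 μM co-corrector controls.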

In experiment [2] the target is T1, ΔF508-CFTR. Put plainly: CFTR cell surface levels using HRP-tagged ΔF508-CFTR expressing CFBE cells, intrinsic corrector capacity. Conditions: for EC50: read-out: EC50. It counts as cell-based. The method, boiled down: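 Here the cells express ΔF508-CFTR with horseradish peroxidase inserted in extracellular loop 4, so only rescued channel at the surface gives luminescent signal. Compounds act on their own, 20 h at the reduced temperature of 33 °C; values are percent activity relative to DMSO and a 3 μM corrector.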

The mark [3] stands for this setting: HRP-tagged ΔF508-CFTR CFBE41o- cells, compounds alone (intrinsic corrector capacity), 20 hours at 33° C., positive control 3 μM corrector.
Setting [4] is: HRP-tagged ΔF508-CFTR CFBE41o- cells, compounds alone (intrinsic corrector capacity), 20 hours at 33° C.
The mark [5] stands for this setting: HRP-tagged ΔF508-CFTR expressing CFBE cells, intrinsic corrector capacity (no co-corrector), 33° C., 20 hours.

T1 sequence (P13569 with tags, fused parts or gaps DEL508-508): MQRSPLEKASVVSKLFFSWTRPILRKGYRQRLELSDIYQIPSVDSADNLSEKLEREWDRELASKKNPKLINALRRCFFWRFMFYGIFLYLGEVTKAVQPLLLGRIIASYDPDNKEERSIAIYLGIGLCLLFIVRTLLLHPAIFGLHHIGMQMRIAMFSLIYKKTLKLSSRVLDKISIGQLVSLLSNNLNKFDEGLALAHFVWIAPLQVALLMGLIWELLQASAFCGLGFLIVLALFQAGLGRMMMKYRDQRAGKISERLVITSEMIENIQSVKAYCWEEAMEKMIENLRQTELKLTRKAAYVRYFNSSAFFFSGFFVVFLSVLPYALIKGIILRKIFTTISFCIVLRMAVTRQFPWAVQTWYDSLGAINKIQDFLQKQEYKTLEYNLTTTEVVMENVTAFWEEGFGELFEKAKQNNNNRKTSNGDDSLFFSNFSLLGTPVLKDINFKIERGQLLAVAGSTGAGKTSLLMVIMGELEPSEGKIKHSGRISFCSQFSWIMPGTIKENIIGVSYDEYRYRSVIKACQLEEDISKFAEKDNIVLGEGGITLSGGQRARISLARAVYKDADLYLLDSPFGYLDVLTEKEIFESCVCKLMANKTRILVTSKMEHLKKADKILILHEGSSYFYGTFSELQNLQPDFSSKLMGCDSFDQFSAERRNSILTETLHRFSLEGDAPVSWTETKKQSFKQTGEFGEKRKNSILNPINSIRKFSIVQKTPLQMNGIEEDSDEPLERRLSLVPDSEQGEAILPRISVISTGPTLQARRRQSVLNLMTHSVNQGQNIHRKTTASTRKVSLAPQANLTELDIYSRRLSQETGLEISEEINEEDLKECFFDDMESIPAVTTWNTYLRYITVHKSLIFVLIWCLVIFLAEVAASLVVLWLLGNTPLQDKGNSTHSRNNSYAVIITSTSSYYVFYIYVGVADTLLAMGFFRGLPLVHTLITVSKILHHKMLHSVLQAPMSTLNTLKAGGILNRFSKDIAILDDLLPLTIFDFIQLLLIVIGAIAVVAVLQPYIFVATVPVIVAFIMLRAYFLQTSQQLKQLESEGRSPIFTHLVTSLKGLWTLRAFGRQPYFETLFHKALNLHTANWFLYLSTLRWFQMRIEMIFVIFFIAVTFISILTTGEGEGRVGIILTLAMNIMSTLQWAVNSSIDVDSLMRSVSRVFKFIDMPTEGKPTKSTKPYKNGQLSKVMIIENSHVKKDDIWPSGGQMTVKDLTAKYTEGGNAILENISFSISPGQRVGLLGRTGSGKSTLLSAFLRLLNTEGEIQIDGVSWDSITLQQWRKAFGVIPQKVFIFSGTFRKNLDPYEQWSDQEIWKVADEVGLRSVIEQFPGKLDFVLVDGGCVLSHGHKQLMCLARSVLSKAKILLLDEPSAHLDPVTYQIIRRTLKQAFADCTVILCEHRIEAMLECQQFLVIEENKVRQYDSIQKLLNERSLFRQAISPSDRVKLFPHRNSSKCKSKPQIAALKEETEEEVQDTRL

With `Cc1cccc(-n2nc(C(C)C)c3c(N4CC5CN(C(=O)OC(C)(C)C)CC5C4)cc(C(=O)O)nc32)c1` (stereo not drawn) [compound 216, 4-[5-(tert-butoxycarbonyl)hexahydropyrrolo[3,4-c]pyrrol-2(1H)-yl]-1-(3-methylphenyl)-3-(propan-2-yl)-1H-pyrazolo[3,4-b]pyridine-6-carboxylic acid], the “% Activation” value at ΔF508-CFTR [1] amounted to 431.7%; on ΔF508-CFTR [2] (setting [3]), 161%. The EC50 on ΔF508-CFTR [1] is 1110 nM; at ΔF508-CFTR [2] (setting [4]), 1010 nM.
`COCC1CCCN(c2cc(C(=O)O)nc3c2c(C2CCC2)nn3-c2ccccc2)C1` (stereo not drawn) [compound 373, 3-cyclobutyl-4-[3-(methoxymethyl)piperidin-1-yl]-1-phenyl-1H-pyrazolo[3,4-b]pyridine-6-carboxylic acid]: the entries for the “% Activation” value on ΔF508-CFTR [1] and at ΔF508-CFTR [2] (setting [3]) were 306.9% and 126.3%, respectively. The figures for the EC50 on ΔF508-CFTR [1] and at ΔF508-CFTR [2] (setting [4]) were 304 nM and 469 nM, respectively.
Take `COCCCN1CCN(c2cc(C(=O)O)nc3c2c(C(C)C)nn3-c2ccc(F)cc2)CC1` [compound 776, 1-(4-fluorophenyl)-4-[4-(3-methoxypropyl)piperazin-1-yl]-3-(propan-2-yl)-1H-pyrazolo[3,4-b]pyridine-6-carboxylic acid]: on ΔF508-CFTR [1], the “% Activation” value is given as 261.4% and the concentration for a half-maximal effect (EC50) came out at 531 nM. Further, on ΔF508-CFTR [2] (setting [5]), the “% Activation” value was determined as 113.2% and the EC50 turned out to be 1670 nM.
`Cc1nn(-c2ccccc2)c2nc(C(=O)O)cc(-c3ccc(N4CCC(N(C)C)C4)cc3)c12` (stereo not drawn) [compound 217, 4-{4-[3-(dimethylamino)pyrrolidin-1-yl]phenyl}-3-methyl-1-phenyl-1H-pyrazolo[3,4-b]pyridine-6-carboxylic acid]: the “% Activation” value at ΔF508-CFTR [1] is 342.3%; at ΔF508-CFTR [2] (setting [3]), 129.7%. For the same compound, the concentration giving a half-maximal response (EC50) at ΔF508-CFTR [1] was found to be 1470 nM; at ΔF508-CFTR [2] (setting [4]) it was 1520 nM.
For `Cc1cccc(-n2nc(C(C)C)c3c(N4CC(F)C4)cc(C(=O)O)nc32)c1` [compound 174, 4-(3-fluoroazetidin-1-yl)-1-(3-methylphenyl)-3-(propan-2-yl)-1H-pyrazolo[3,4-b]pyridine-6-carboxylic acid], the “% Activation” value on ΔF508-CFTR [1] is 260.12%; on ΔF508-CFTR [2] (setting [3]) it was 90.21%. For the same compound, the EC50 turned out to be 2540 nM on ΔF508-CFTR [1] and 3240 nM on ΔF508-CFTR [2] (setting [4]).
For the compound `O=C(O)c1cc(N2CCC3(CC2)CC(O)C3)c2c(C3CCC3)nn(-c3ccccc3)c2n1` [compound 543, 3-cyclobutyl-4-(2-hydroxy-7-azaspiro[3.5]nonan-7-yl)-1-phenyl-1H-pyrazolo[3,4-b]pyridine-6-carboxylic acid], at ΔF508-CFTR [1], the “% Activation” value worked out at 304.9% and the 50% effective concentration (EC50) came out at 242 nM. Further, at ΔF508-CFTR [2] (setting [5]), the “% Activation” value was found to be 129.15% and the EC50 was found to be 304 nM.
With `O=C(O)c1cc(OCC2CCOCC2)c2c(C3CCC3)nn(-c3ccccc3)c2n1` [compound 417, 3-cyclobutyl-4-[(oxan-4-yl)methoxy]-1-phenyl-1H-pyrazolo[3,4-b]pyridine-6-carboxylic acid], the “% Activation” value was 322% at ΔF508-CFTR [1] and 134.8% at ΔF508-CFTR [2] (setting [5]). Besides, the EC50 on ΔF508-CFTR [1] worked out at 318 nM; on ΔF508-CFTR [2] (setting [5]) it was 546 nM.
The matching figures for `COCCN(C)c1cc(C(=O)O)nc2c1c(C1CCC1)nn2-c1ccccc1` [compound 422, 3-cyclobutyl-4-[(2-methoxyethyl)(methyl)amino]-1-phenyl-1H-pyrazolo[3,4-b]pyridine-6-carboxylic acid]: 336.05%, 131.9%, 1000 nM and 1620 nM.
The matching figures for `O=C(O)c1cc(N2CCC3(C2)CC3(F)F)c2c(C3CCC3)nn(-c3ccccc3)c2n1` (stereo not drawn) [compound 423, 3-cyclobutyl-4-(1,1-difluoro-5-azaspiro [2. 4]heptan-5-yl)-1-phenyl-1H-pyrazolo[3,4-b]pyridine-6-carboxylic acid]: 299.25%, 113.4%, 920 nM and 934 nM.
As to `O=C(O)c1cc(N2CCC(N3CCCC(C(F)(F)F)C3)CC2)c2c(C3CCC3)nn(-c3ccc(F)cc3)c2n1` (stereo not drawn) [compound 874, 3-cyclobutyl-1-(4-fluorophenyl)-4-[3-(trifluoromethyl)[1,4′-bipiperidin]-1′-yl]-1H-pyrazolo[3,4-b]pyridine-6-carboxylic acid], at ΔF508-CFTR [1], the “% Activation” value is 608.35% and the EC50 was 83 nM. For the same compound, on ΔF508-CFTR [2] (setting [5]), the “% Activation” value turned out to be 330.7% and the EC50 was determined as 170 nM.
With `Cc1nn(-c2ccccc2)c2nc(C(=O)O)cc(-c3cnc(N4CCOCC4)nc3)c12` [compound 15, 3-methyl-4-[2-(morpholin-4-yl)pyrimidin-5-yl]-1-phenyl-1H-pyrazolo[3,4-b]pyridine-6-carboxylic acid], the entries for the “% Activation” value on ΔF508-CFTR [1] and on ΔF508-CFTR [2] (setting [3]) were 282.5% and 98.68%, respectively. Further, the EC50 was 2600 nM on ΔF508-CFTR [1] and 2670 nM on ΔF508-CFTR [2] (setting [4]).
As for `CO[C@H]1CCN(c2cc(C(=O)O)nc3c2c(C)nn3-c2ccccc2)C1` [compound 296, 4-[(3S)-3-methoxypyrrolidin-1-yl]-3-methyl-1-phenyl-1H-pyrazolo[3,4-b]pyridine-6-carboxylic acid], the “% Activation” value on ΔF508-CFTR [1] is on record as 164%; on ΔF508-CFTR [2] (setting [3]), 29.42%. The EC50 on ΔF508-CFTR [1] is 2510 nM; at ΔF508-CFTR [2] (setting [4]), 4170 nM.
Consider `Cc1nn(-c2ccccc2)c2nc(C(=O)O)cc(N3CCN(CC(=O)N(C)C)CC3)c12` [compound 323, 4-{4-[2-(dimethylamino)-2-oxoethyl]piperazin-1-yl}-3-methyl-1-phenyl-1H-pyrazolo[3,4-b]pyridine-6-carboxylic acid], for which the results for the “% Activation” value on ΔF508-CFTR [1] and on ΔF508-CFTR [2] (setting [3]) were 128.4% and 8.143%, respectively. Also, the concentration giving a half-maximal response (EC50) on ΔF508-CFTR [1] and at ΔF508-CFTR [2] (setting [4]) was over 10000 nM throughout.
Consider `N#CC1CCN(C2CCN(c3cc(C(=O)O)nc4c3c(C3CCC3)nn4-c3ccc(F)cc3)CC2)CC1` [compound 860, 4-(4-cyano[1,4′-bipiperidin]-1′-yl)-3-cyclobutyl-1-(4-fluorophenyl)-1H-pyrazolo[3,4-b]pyridine-6-carboxylic acid], for which the results for the “% Activation” value at ΔF508-CFTR [1] and on ΔF508-CFTR [2] (setting [5]) were 576.25% and 383%, respectively. Moreover, the EC50 stood at 417 nM on ΔF508-CFTR [1] and 517 nM at ΔF508-CFTR [2] (setting [5]).
For the compound `COCCN(C)c1ccc(-c2cc(C(=O)O)nc3c2c(C(C)C)nn3C2CCCCC2)cc1` [compound 184, 1-cyclohexyl-4-{4-[(2-methoxyethyl)(methyl)amino]phenyl}-3-(propan-2-yl)-1H-pyrazolo[3,4-b]pyridine-6-carboxylic acid], the “% Activation” value was determined as 377.4% on ΔF508-CFTR [1] and 170.25% on ΔF508-CFTR [2] (setting [3]). Also, the EC50 on ΔF508-CFTR [1] stood at 677 nM; at ΔF508-CFTR [2] (setting [4]), 942 nM.
Turning to `O=C(O)c1cc(O[C@H]2CCOC2)c2c(C3CCC3)nn(-c3ccccc3)c2n1` [compound 583], on ΔF508-CFTR [1], the “% Activation” value was found to be 287.75% and the EC50 is 460 nM. At ΔF508-CFTR [2] (setting [5]), the “% Activation” value is 134.7% and the 50% effective concentration (EC50) was determined as 1020 nM.
For `CC(C)c1nn(C2CCCCC2)c2nc(C(=O)O)cc(-c3ccc(N4CCOC(C)(C)C4)nc3)c12` [compound 197, 1-cyclohexyl-4-[6-(2,2-dimethylmorpholin-4-yl)pyridin-3-yl]-3-(propan-2-yl)-1H-pyrazolo[3,4-b]pyridine-6-carboxylic acid], the “% Activation” value on ΔF508-CFTR [1] is reported as 445.2%; at ΔF508-CFTR [2] (setting [3]), 219.25%. In addition, the results for the half-maximal effective concentration (EC50) at ΔF508-CFTR [1] and on ΔF508-CFTR [2] (setting [4]) were 432 nM and 644 nM, respectively.
Take `CCN1CCCN(c2cc(C(=O)O)nc3c2c(C(C)C)nn3-c2ccc(F)cc2)CC1` [compound 797, 4-(4-ethyl-1,4-diazepan-1-yl)-1-(4-fluorophenyl)-3-(propan-2-yl)-1H-pyrazolo[3,4-b]pyridine-6-carboxylic acid]: at ΔF508-CFTR [1], the “% Activation” value was found to be 178.6% and the EC50 was found to be 1670 nM. Also, at ΔF508-CFTR [2] (setting [5]), the “% Activation” value turned out to be 31.52% and the EC50 worked out at 5000 nM.
For `COCCN(C)c1ccc(-c2cc(C(=O)O)nc3c2c(C(C)C)nn3C2CCCCC2)cn1` [compound 170, 1-cyclohexyl-4-{6-[(2-methoxyethyl)(methyl)amino]pyridin-3-yl}-3-(propan-2-yl)-1H-pyrazolo[3,4-b]pyridine-6-carboxylic acid], the “% Activation” value stood at 482.4% at ΔF508-CFTR [1] and 208.6% on ΔF508-CFTR [2] (setting [3]). Further, the EC50 at ΔF508-CFTR [1] worked out at 504 nM; on ΔF508-CFTR [2] (setting [4]) it was 738 nM.
For the compound `O=C(O)c1cc(N2CCOC(C(F)(F)F)C2)c2c(C3CCC3)nn(-c3ccccc3)c2n1` (stereo not drawn) [compound 596, 3-cyclobutyl-1-phenyl-4-[2-(trifluoromethyl)morpholin-4-yl]-1H-pyrazolo[3,4-b]pyridine-6-carboxylic acid], the results for the “% Activation” value on ΔF508-CFTR [1] and at ΔF508-CFTR [2] (setting [5]) were 299.4% and 99.54%, respectively. Moreover, the EC50 was determined as 522 nM at ΔF508-CFTR [1] and 735 nM at ΔF508-CFTR [2] (setting [5]).
The matching figures for `COC1CCCN(C2CCN(c3cc(C(=O)O)nc4c3c(C3CCC3)nn4-c3ccc(F)cc3)CC2)C1` (stereo not drawn) [compound 875, 3-cyclobutyl-1-(4-fluorophenyl)-4-(3-methoxy[1,4′-bipiperidin]-1′-yl)-1H-pyrazolo[3,4-b]pyridine-6-carboxylic acid]: 450.3%, 270.7%, 819 nM and 1600 nM.

As usually defined, the EC50 is the concentration needed to bring the measured effect to its halfway point.
